The results in this text go back to patent US8093183B2, “Methods for using polyol esters to control pests” (S.C. Johnson & Son, Inc., priority 2004, dated 2012).

This assay concerns German cockroaches. To be noted: spraying about three grams of formulation. An excerpt:
In our experiments we created aqueous solutions of sucrose octanoate and sorbitol octanoate by diluting the more concentrated formulations provided by the aforesaid manufacturers. We created varied concentrations ranging from 0.05% through 10%.
We tested our formulations by spraying them on cockroaches, ants, crickets, silverfish, wasps, bristletails, hornets, centipedes, earwigs, spiders and sowbugs.

Where two headings read alike, the source gives them in different places.

sucrose octanoate: the “kill at 24 hours” value runs as follows: (0.1% concentration) “essentially no kill”; (1% concentration) “about 80%”. The kill (5% concentration) came out at 100%.
